The subject of test [1] is ex vivo calcium ionophore-stimulated LTB4 production in whole blood. Description: Murine arachidonic acid-induced inflammation model: ex vivo stimulated LTB4 production in blood. Further details: species or system Balb/c mice. The settings on record: Mus musculus; 30 mg/kg oral gavage; blood diluted 1:1, A23187 stimulated ex vivo; percent inhibition of LTB4 production; read-out: % Inh. LTB4.

Test [2] deals with T1, recombinant human LTA4 hydrolase (rhLTA4H) (Homo sapiens, UniProt P09960).
T1 construct: made in house; host or cells: Spodoptera frugiperda (Sf-9) cells, baculovirus (pFastBac1)
T1 sequence (P09960 1-611): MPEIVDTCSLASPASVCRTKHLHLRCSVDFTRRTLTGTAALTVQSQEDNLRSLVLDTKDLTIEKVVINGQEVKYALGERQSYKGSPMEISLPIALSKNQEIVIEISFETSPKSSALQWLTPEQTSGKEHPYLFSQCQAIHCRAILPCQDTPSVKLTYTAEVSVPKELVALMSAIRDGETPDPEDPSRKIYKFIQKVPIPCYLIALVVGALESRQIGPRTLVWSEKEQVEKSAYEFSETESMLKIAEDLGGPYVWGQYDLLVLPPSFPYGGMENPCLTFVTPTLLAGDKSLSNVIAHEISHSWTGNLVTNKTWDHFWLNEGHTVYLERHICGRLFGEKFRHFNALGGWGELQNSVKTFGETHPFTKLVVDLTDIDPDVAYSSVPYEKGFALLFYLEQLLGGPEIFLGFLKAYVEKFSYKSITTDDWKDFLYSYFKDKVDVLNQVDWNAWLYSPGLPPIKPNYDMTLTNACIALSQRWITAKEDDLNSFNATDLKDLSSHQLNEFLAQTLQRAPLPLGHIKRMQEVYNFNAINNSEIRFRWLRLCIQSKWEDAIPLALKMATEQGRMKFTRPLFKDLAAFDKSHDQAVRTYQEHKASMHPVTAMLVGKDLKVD
The experiment in a line: Recombinant human LTA4 hydrolase assay for LTA4 hydrolase inhibitor activity. Type of test: biochemical. Put shortly: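 LTB4 formation, measured by enzyme immunoassay, was the read-out. The enzyme, recombinant human LTA4H expressed in Sf-9 insect cells (10 ng per reaction), was exposed to compound for 10 min at room temperature before hydrolysed-ester LTA4 substrate was added for 30 min. Enzyme-free negatives were included.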

The test system of test [3] is arachidonic acid-induced neutrophil influx in murine ear tissue. Description: Murine arachidonic acid-induced inflammation model: neutrophil influx (myeloperoxidase) in ear. The settings on record: Mus musculus, read-out: % Inh. MPO. In kind it is in vivo, Balb/c mice.
In test [4] the test system is LTB4 production in murine blood (LTA4H). Description: LTB4 production by calcium ionophore-stimulated murine blood for LTA4H inhibitor activity. The settings on record: Mus musculus; murine blood diluted 1 in 15, A23187 stimulated; single determination or average; mark after value = form tested: ′ free base, ″ hydrochloride, ^ formate; read-out: IC50. Type of test: cell-based, CD-1 mice. Put shortly: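 LTB4 was measured by ELISA in supernatants after calcium ionophore A23187 stimulation (final 7 μg/mL, 30 min, 37° C) of CD-1 mouse blood collected on heparin. Compound was preincubated with the blood for 15 min beforehand. Values come from one determination or average several.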

The mark [5] stands for this setting: rhLTA4H, LTB4 by immunoassay, single determination or average of two or more, mark after value = form tested: ′ free base, ″ hydrochloride, ^ formate, read-out: IC50.
Where [6] appears, read: 30 mg/kg oral gavage, 60 min before topical arachidonic acid, ear biopsy after 3 h, percent inhibition of neutrophil influx.

Structures are written as SMILES. Structures can show the parent of a compound that is named as a salt. Where two headings read alike, the source gives them in different places.

Usually IC50 stands for the concentration that inhibits the measured activity by half. In the case of `CN(C)Cc1cc2cc(Oc3nc4ncccc4s3)ccc2o1` [Example 112, Dimethyl-[5-(thiazolo[4,5-b]pyridin-2-yloxy)-benzofuran-2-ylmethyl]-amine], the results for the inhibition at 30 mg/kg in test [1] and in test [3] (setting [6]) were 56% and 17%, respectively. For the same compound, the IC50 in test [2] (setting [5]) came to 42 nM; in test [4], 70 nM.

Turning to `c1cnc2nc(Oc3ccc4c(CN5CCCC5)coc4c3)sc2c1` [Example 185, 2-(3-Pyrrolidin-1-ylmethyl-benzofuran-6-yloxy)-thiazolo[4,5-b]pyridine], the values for the inhibition at 30 mg/kg in test [1] and in test [3] (setting [6]) were 75% and 64%, respectively. Further, the IC50 is 4 nM in test [2] (setting [5]) and 12 nM in test [4].

On to `CC(=O)NC1CCN(Cc2coc3cc(Oc4nc5ncccc5s4)ccc23)CC1` [Example 197, N-{1-[6-(Thiazolo[4,5-b]pyridin-2-yloxy)-benzofuran-3-ylmethyl]-piperidin-4-yl}-acetamide formate], for which the inhibition at 30 mg/kg in test [1] amounted to 91%; in test [3] (Neutrophil), 92%. Besides, the IC50 turned out to be 4 nM in test [2] (setting [5]) and 15 nM in test [4].

In the case of `NC(=O)C1CCN(Cc2coc3cc(Oc4nc5ncccc5s4)ccc23)CC1` [Example 213, 1-[6-(Thiazolo[4,5-b]pyridin-2-yloxy)-benzofuran-3-ylmethyl]-piperidine-4-carboxylic acid amide], the inhibition at 30 mg/kg in test [1] was 80%; in test [3] (setting [6]) it was 92%. For the same compound, the half-maximal inhibitory concentration (IC50) came to 5 nM in test [2] (setting [5]) and 25 nM in test [4].

For `CC(=O)N1CCCN(C(=O)c2coc3cc(Oc4nc5ncccc5s4)ccc23)CC1` [Example 372, 1-{4-[6-(Thiazolo[4,5-b]pyridin-2-yloxy)-benzofuran-3-carbonyl]-[1,4]diazepan-1-yl}-ethanone], the values for the inhibition at 30 mg/kg in test [1] and in test [3] (setting [6]) were 62% and 53%, respectively. Moreover, the IC50 in test [2] (setting [5]) stood at 30 nM; in test [4] it was 47 nM.

Regarding `NC(=O)N1C[C@H]2C[C@@H]1CN2Cc1cc2cc(Oc3nc4ncccc4s3)ccc2o1` [Example 101, (1R,4R)-5-[5-(Thiazolo[4,5-b]pyridin-2-yloxy)-benzofuran-2-ylmethyl]-2,5-diaza-bicyclo[2.2.1]heptane-2-carboxylic acid amide], the inhibition at 30 mg/kg was 53% in test [1] and 65% in test [3] (setting [6]). Moreover, the IC50 in test [2] (setting [5]) was 52 nM; in test [4] it was 202 nM.

In the case of `CS(=O)(=O)C1CCN(Cc2coc3cc(Oc4nc5ncccc5s4)ccc23)CC1` [Example 183, 2-[3-(4-Methanesulfonyl-piperidin-1-ylmethyl)-benzofuran-6-yloxy]-thiazolo[4,5-b]pyridine], the inhibition at 30 mg/kg amounted to 83% in test [1] and 85% in test [3] (setting [6]). Moreover, the IC50 in test [2] (setting [5]) is 6 nM; in test [4] it was 57 nM.

Turning to `NC(=O)C1CCCN(Cc2coc3cc(Oc4nc5ncccc5s4)ccc23)C1` (stereo in doubt) [Example 216, (3S)-1-[6-(Thiazolo[4,5-b]pyridin-2-yloxy)-benzofuran-3-ylmethyl]-piperidine-3-carboxylic acid amide], the inhibition at 30 mg/kg in test [1] and in test [3] (setting [6]) was 87% each time. The half-inhibitory concentration (IC50) in test [2] (setting [5]) was found to be 3 nM; in test [4], 28 nM.

Take `CC(=O)N[C@H]1C[C@H]2CC[C@@H](C1)N2Cc1cc2ccc(Oc3nc4ncccc4s3)cc2s1` [Example 135, meso-endo-N-{8-[6-(Thiazolo[4,5-b]pyridin-2-yloxy)-benzo[b]thiophen-2-ylmethyl]-8-aza-bicyclo[3.2.1]oct-3-yl}-acetamide]: the inhibition at 30 mg/kg worked out at 85% in test [1] and 42% in test [3] (setting [6]). In addition, the IC50 in test [2] (setting [5]) amounted to 3 nM; in test [4], 110 nM.

As for `NC(=O)N1C[C@@H]2C[C@H]1CN2Cc1coc2cc(Oc3nc4ncccc4s3)ccc12` [Example 209, (1S,4S)-5-[6-(Thiazolo[4,5-b]pyridin-2-yloxy)-benzofuran-3-ylmethyl]-2,5-diaza-bicyclo[2.2.1]heptane-2-carboxylic acid amide formate], the results for the inhibition at 30 mg/kg in test [1] and in test [3] (Neutrophil) were 68% and 82%, respectively. Also, the IC50 in test [2] (setting [5]) came out at 53 nM; in test [4] it was 54 nM.

For `CC(=O)N[C@@H]1C[C@H]2CC[C@@H](C1)N2Cc1coc2cc(Oc3nc4ncccc4s3)ccc12` [Example 208, meso-exo-N-{8-[6-(Thiazolo[4,5-b]pyridin-2-yloxy)-benzofuran-3-ylmethyl]-8-aza-bicyclo[3.2.1]oct-3-yl}-acetamide], the inhibition at 30 mg/kg came out at 93% in test [1] and 92% in test [3] (setting [6]). Moreover, the IC50 in test [2] worked out at 1 nM; in test [4] it was 24 nM.

Turning to `O=C(O)C1CCN(Cc2cc3cc(Oc4nc5ccccc5s4)ccc3o2)CC1` [Example 76, 1-[5-(Benzothiazol-2-yloxy)-benzofuran-2-ylmethyl]-piperidine-4-carboxylic acid], the inhibition at 30 mg/kg in test [1] worked out at 85%; in test [3] (setting [6]), 89%. Moreover, the IC50 in test [2] (setting [5]) turned out to be 28 nM; in test [4], 48 nM.

As for `CC(=O)N1C[C@@H]2C[C@H]1CN2CCc1coc2cc(Oc3nc4ncccc4s3)ccc12` [Example 258, (1S,4S)-1-(5-{2-[6-(Thiazolo[4,5-b]pyridin-2-yloxy)-benzofuran-3-yl]-ethyl}-2,5-diaza-bicyclo[2.2.1]hept-2-yl)-ethanone], the inhibition at 30 mg/kg in test [1] turned out to be 70.9%; in test [3] (setting [6]), 72%. The IC50 in test [2] (setting [5]) turned out to be 22 nM; in test [4], 88 nM.

As for `CC(=O)N[C@@H]1C[C@H]2CC[C@@H](C1)N2Cc1cc2ccc(Oc3nc4ncccc4s3)cc2o1` [Example 106, meso-exo-N-{8-[6-(Thiazolo[4,5-b]pyridin-2-yloxy)-benzofuran-2-ylmethyl]-8-aza-bicyclo[3.2.1]oct-3-yl}-acetamide], the inhibition at 30 mg/kg in test [1] is 85%; in test [3] (setting [6]), 81%. In addition, the IC50 in test [2] (setting [5]) turned out to be 7 nM; in test [4] it was 14 nM.

For the compound `CC(=O)N1C[C@@H]2CC[C@H]1CN2Cc1cc2ncc(Oc3nc4ncccc4s3)cc2o1` [Example 339, (1S,4S)-1-{5-[6-(Thiazolo[4,5-b]pyridin-2-yloxy)-furo[3,2-b]pyridin-2-ylmethyl]-2,5-diaza-bicyclo[2.2.2]oct-2-yl}-ethanone formate], the inhibition at 30 mg/kg in test [1] and in test [3] (Neutrophil) was 50% in each case. Besides, the IC50 in test [2] (setting [5]) amounted to 12 nM; in test [4], 70 nM.

With `CC(=O)N[C@H]1C[C@H]2CC[C@@H](C1)N2Cc1coc2cc(Oc3nc4ncccc4s3)ccc12` [Example 155, meso-endo-N-{8-[6-(Thiazolo[4,5-b]pyridin-2-yloxy)-benzofuran-3-ylmethyl]-8-aza-bicyclo[3.2.1]oct-3-yl}-acetamide], the inhibition at 30 mg/kg worked out at 85% in test [1] and 88% in test [3] (setting [6]). Further, the IC50 in test [2] stood at 2 nM; in test [4], 9 nM.

On to `CC(=O)N[C@H]1C[C@@H]2C[C@H]1CN2Cc1cc2ccc(Oc3nc4ncccc4s3)cc2o1` [Example 189, (1S,4S,5S)—N-{2-[6-(Thiazolo[4,5-b]pyridin-2-yloxy)-benzofuran-2-ylmethyl]-2-aza-bicyclo[2.2.1]hept-5-yl}-acetamide], for which the results for the inhibition at 30 mg/kg in test [1] and in test [3] (setting [6]) were 76% and 84%, respectively. For the same compound, the IC50 in test [2] (setting [5]) is 3 nM; in test [4], 70 nM.

Source of the values: patent US8399465B2, “Compounds with two fused bicyclic heteroaryl moieties as modulators of leukotriene A4 hydrolase” (Janssen Pharmaceutica NV, priority 2009, dated 2013).
